Results: US12194105B2, “Composition and method for new antimicrobial agents with secondary mode of action provided by conjugation of an antimicrobial to a guanidinium-rich molecular transporter” (The Board of Trustees of the Leland Stanford Junior …, priority 2018, dated 2025)
In brackets after ≈: the same amount, converted by molar mass. Entries after “also recorded” stand apart in the source; their conditions may differ. Like-named read-outs stand apart in the source and are kept apart here.

How the values were obtained:
[1] = system: E. faecalis Van-Resistant; experiment: microbe, parasite or virus in culture; conditions: Enterococcus faecalis, read-out: E. faecalis MICs Van-Resistant
Procedure: (§1) MICS were determined using broth microdilution in accordance with CLSI methods.^6 One day prior to each MIC experiment, bacterial strains were streaked for single colonies from frozen glycerol stocks stored at −80° C. on Tryptic soy agar. 3-5 colonies from each plate were harvested with a disposable inoculating loop and resuspended in 500 μL PBS. This suspension was diluted in sterile-filtered PBS to an OD of 0.1(˜1×10^8 CFU/ml), and the OD 0.1 suspension was diluted 1:100 in Mueller-Hinton Broth (MHB, Difco 257530) just prior to inoculating the 96-well polypropylene treatment plate. The treatment plate was prepared as follows: 20-fold stocks of the highest concentration of compound tested were prepared in sterile-filtered PBS and were subsequently diluted in MHB to prepare working stocks at 2-times the final concentration. 100 μL of each working stock was placed in the highest concentration treatment well, and the working stocks were 2-fold serially diluted in MHB to lend final treatment volumes of 50 μL/well. 50 μL of adjusted inoculum was added to each well to lend a total volume of 100 μL/well and a final inoculum density of ˜5×10^5 colony forming units (CFU/ml). 10 μL of inoculum in growth control wells was serially diluted in PBS and plated on Tryptic soy agar to verify accurate starting density of cells. Growth controls were included in each plate, where no treatment was applied, along with media only controls. Edge wells were filled with PBS. The completed assay plate was sealed with parafilm, placed in a lidded plastic tray lined with moistened paper towels, and incubated at 37° C. for 18-20 h.

P. aeruginosa PA14 [2] = experiment: microbe, parasite or virus in culture; conditions: Pseudomonas aeruginosa, PA14, read-out: Median MIC
Procedure: (§2) Determination of MICs. MICS were determined using broth microdilution in accordance with CLSI methods.^6 One day prior to each MIC experiment, bacterial strains were streaked for single colonies from frozen glycerol stocks stored at −80° C. on Tryptic soy agar. 3-5 colonies from each plate were harvested with a disposable inoculating loop and resuspended in 500 μL PBS. This suspension was diluted in sterile-filtered PBS to an OD of 0.1(˜1×10^8 CFU/ml), and the OD 0.1 suspension was diluted 1:100 in Mueller-Hinton Broth (MHB, Difco 257530) just prior to inoculating the 96-well polypropylene treatment plate. The treatment plate was prepared as follows: 20-fold stocks of the highest concentration of compound tested were prepared in sterile-filtered PBS and were subsequently diluted in MHB to prepare working stocks at 2-times the final concentration. 100 μL of each working stock was placed in the highest concentration treatment well, and the working stocks were 2-fold serially diluted in MHB to lend final treatment volumes of 50 μL/well. 50 μL of adjusted inoculum was added to each well to lend a total volume of 100 μL/well and a final inoculum density of ˜5×10^5 colony forming units (CFU/ml). 10 μL of inoculum in growth control wells was serially diluted in PBS and plated on Tryptic soy agar to verify accurate starting density of cells. […]

MRSA USA300 biofilms = experiment: Biofilm reduction in vitro after 5 h treatment, Calgary Biofilms Device; type: cell-based, Staphylococcus aureus; conditions: for Log CFU/ml counts: 5 h treatment, median (IQR), untreated 4.5, detection limit 2 Log
H. pylori = experiment: MIC, Gram-negative planktonic strains; conditions: Helicobacter pylori
Procedure: as §2

E. coli UTI89 [3] = experiment: microbe, parasite or virus in culture; conditions: Escherichia coli, UTI89, read-out: Median MIC
Procedure: as §1

[4] = system: E. faecalis Van-Susceptible; experiment: microbe, parasite or virus in culture; conditions: Enterococcus faecalis, read-out: E. faecalis MICs Van-Susceptible
Procedure: as §2

[5] = system: MRSA USA300 LAC persister cells; experiment: Time-kill of persister cells generated with ciprofloxacin; type: cell-based, Staphylococcus aureus; conditions: for killing of persister cells: in words
Procedure: FIG. 1. Time-kill study of MRSA USA300 LAC persister cells treated with vancomycin and V-r8. MRSA persister cells were generated by treatment with ciprofloxacin at 40 μM for 6 h. Vancomycin or V-r8 (TFA salt) was then introduced at a concentration of 10 μM. Data points are median Log(CFU/ml) values from 2 independent experiments (N=2) where treatments were performed in singlicate. Error bars represent IQR. Detection limit: 1 Log(CFU/ml).
Evaluation of antibacterial activity against persister cells. USA300 persister cells were generated by diluting an overnight culture of USA300 bacteria 1:1000 in 4 mL MHB and growing to OD 0.5 at 37° C. with 200 rpm shaking. […] Upon 6 h treatment with ciprofloxacin, 500 μL culture aliquots were added to Eppendorf tubes and compounds were added from concentrated stocks (mM range) to yield desired final concentrations (10-20 μM). […] CFU/ml were plated at indicated time points to monitor treatment efficacy. The experiment was performed at least twice on separate days.

MRSA USA400 MW2 = experiment: Time-kill in MHB; type: cell-based, Staphylococcus aureus; conditions: 20 μM; detection limit 2.3 Log(CFU/ml)
Procedure: FIG. 9. Influence of V and V-r8 (both at 20 μM) on cell viability for MRSA USA400 MW2 in MHB.

MRSA (USA400MW2) [6] = experiment: microbe, parasite or virus in culture; conditions: Staphylococcus aureus, read-out: Minimum Inhibitory Concentration (MIC)
Procedure: as §1

MRSA (USA300LAC) [7] = experiment: microbe, parasite or virus in culture; conditions: Staphylococcus aureus, read-out: Minimum Inhibitory Concentration (MIC)
Procedure: (§3) Determination of MICs. MICS were determined using broth microdilution in accordance with CLSI methods.^6 One day prior to each MIC experiment, bacterial strains were streaked for single colonies from frozen glycerol stocks stored at −80° C. on Tryptic soy agar. 3-5 colonies from each plate were harvested with a disposable inoculating loop and resuspended in 500 μL PBS. This suspension was diluted in sterile-filtered PBS to an OD of 0.1(˜1×10^8 CFU/ml), and the OD 0.1 suspension was diluted 1:100 in Mueller-Hinton Broth (MHB, Difco 257530) just prior to inoculating the 96-well polypropylene treatment plate. The treatment plate was prepared as follows: 20-fold stocks of the highest concentration of compound tested were prepared in sterile-filtered PBS and were subsequently diluted in MHB to prepare working stocks at 2-times the final concentration. 100 μL of each working stock was placed in the highest concentration treatment well, and the working stocks were 2-fold serially diluted in MHB to lend final treatment volumes of 50 μL/well. 50 μL of adjusted inoculum was added to each well to lend a total volume of 100 μL/well and a final inoculum density of ˜5×10^5 colony forming units (CFU/ml). 10 μL of inoculum in growth control wells was serially diluted in PBS and plated on Tryptic soy agar to verify accurate starting density of cells. Growth controls were included in each plate, where no treatment was applied, along with media only controls. Edge wells were filled with PBS. The completed assay plate was sealed with parafilm, placed in a lidded plastic tray lined with moistened paper towels, and incubated at 37° C. for 18-20 h.

[8] = system: V. cholerae El Tor A1552R; experiment: microbe, parasite or virus in culture; conditions: Vibrio cholerae, ELTORA1552R, read-out: Median MIC
A. baumannii = experiment: MIC, Gram-negative planktonic strains; conditions: Acinetobacter baumannii
Procedure: as §2

[9] = system: MW2 stationary-phase cells; experiment: Bacterial membrane integrity with SYTOX Green; conditions: V, V-r8 20 μM; lysostaphin 10×MIC
Text: V-r8 mode-of-action analysis using stationary-phase MW2. All data points represent the median of biological duplicates from a representative experiment; all experiments were repeated on a different day to ensure reproducibility. V-r8 was the TFA salt, and PBS was used for the cell only control. […] Assay detection limit=2.3. […] Compound data was normalized to cell-only control data.
Evaluation of Bacterial Membrane Integrity with SYTOX Green. The SYTOX Green assay was adapted from the literature. Briefly, to a black wall clear-bottom 96-well plate (Costar 3603) was added 50 μL of PBS per well containing antibiotics at 2-times the indicated concentration. 1 mL of a stationary phase MW2 culture was pelleted at 10,000 g for 1 min and washed 3 times with the same volume of sterile-filtered PBS. The washed cells were diluted to OD600=0.1 (˜4×10^7 CFU/mL) with PBS. SYTOX Green (Molecular Probes) was added to the diluted stationary phase suspension for a final concentration of 5 μM and incubated for 0.5 h at room temperature in the dark. 50 μL of the bacteria/SYTOX Green mixture was added to each well of 96-well plates containing antibiotics and fluorescence was measured at 37° C. with shaking for up to 4 h using a spectrophotometer (SpectraMax M3, Molecular Devices) with excitation and emission wavelengths of 485 and 525 nm, respectively. Lysostaphin (1.25 μg/mL) was used as a positive control. The experiment was performed twice on separate days.

MSSA (29213) [10] = experiment: microbe, parasite or virus in culture; conditions: Staphylococcus aureus, read-out: Minimum Inhibitory Concentration (MIC)
Procedure: as §1

E. faecium Van-Resistant [11] = experiment: microbe, parasite or virus in culture; conditions: Enterococcus faecium, read-out: E. faecium MICs Van-Resistant
Procedure: as §1

[12] = system: E. faecalis Van-Resistant
Procedure: as §1

[13] = system: E. faecium Van-Susceptible; experiment: microbe, parasite or virus in culture; conditions: Enterococcus faecium, read-out: E. faecium MICs Van-Susceptible
Procedure: as §2

E. faecium Van-Resistant [14] = system: E. faecium Van-Resistant
Procedure: as §1

USA300 LAC biofilm wound = experiment: Murine skin wound excisional biofilm model; conditions: 0.05% solution topical, 5 h treatment, 24 h post infection, compared to untreated mice
MSSA (29213) [15] = system: MSSA (29213)
Procedure: as §1

MRSA (USA400MW2) [16] = system: MRSA (USA400MW2)
Procedure: as §1

[17] = system: E. faecalis Van-Susceptible
Procedure: as §2

[18] = system: E. faecium Van-Susceptible
Procedure: as §2

MRSA (USA300LAC) [19] = system: MRSA (USA300LAC)
Procedure: as §3

E. coli UTI89 [20] = system: E. coli UTI89
Procedure: as §1

V. cholerae = experiment: Time-kill study of V. cholerae; type: cell-based; conditions: equivalent concentrations
Procedure: FIG. 11A-11B. Time-kill study of V. cholerae treated with compounds. (FIG. 11A) Treatments were performed at 20 μM in media. (FIG. 11B) Treatments were performed at 2×MIC in PBS. Kan refers to kanamycin, a FDA-approved aminoglycoside. Data points are from a representative experiment. Detection limit=2.3 Log (CFU/ml).

P. aeruginosa PA14 [21] = conditions: P. aeruginosa PA14, one trial only
Procedure: as §2

[22] = 0.05% V-r8, absence of bacteria
Procedure: To examine in vivo cytotoxicity, sterile wounds were generated and inoculated only with water (FIG. 8A) or 0.05% V-r8 (FIG. 8B) in the absence of bacteria. Wound tissue was harvested after 3 days and examined by Hematoxylin & Eosin staining. […] Epi: skin epidermis; Der: skin dermis. Scale bar represents 100 μm. Images are representative of 3 independent samples.
In vivo histological cytotoxicity assessment. […] Samples were fixed in 4% paraformaldehyde in PBS and incubated in 20% sucrose for 24 hours. Tissues were then embedded into Optical Cutting Temperature (OCT) compound (Sakura, California) and snap frozen in liquid nitrogen. 12 μm sections were obtained on a Leica CM1860 UV cryotome (Leica Biosystems, Ernst-Leitz Strasse, Germany), stained with hemotoxylin and eosin (H&E), and visualized using an Axio Scan.Z1 slide scanner (Carl Zeiss, Göttingen, Germany) under 20×/0.8 Apochrome objective as previously described.

[23] = system: V. cholerae El Tor A1552R
planktonic S. aureus = experiment: Antibacterial activity against planktonic bacteria (summary over strains); conditions: in words
Procedure: as §2

[24] = median (IQR), MRSA (USA300LAC), 24 h treatment in media
[25] = median (IQR), MSSA (29213), 24 h treatment in media

Procedure for MRSA (USA300LAC) biofilm: (§4) Determination of MBECs. Minimum Biofilm Eradication Concentrations (MBECs) were determined in accordance with literature methods. Prior to each assay, 4 mL Tryptic Soy broth (TSB) was inoculated with one colony of S. aureus 29213, MW2 or USA300 and incubated at 37° C., 200 rpm shaking until stationary phase was reached (OD>2). The cultures were adjusted to in TSB to achieve a final inoculum density of 1×10^7 CFU/ml, and 150 μL of inoculum was added to each well of a 96-well base plate (Nunc™ 269787), and a plate lid containing 96 pegs (Nunc™ 445497) was added to the base. The entire apparatus was sealed with parafilm and placed in a sealed plastic bag lined with moistened paper towels for 48 h growth with shaking (150 rpm) at 35° C.
(§5) To prepare biofilm treatment plates, 20-fold stocks of the highest concentration tested were made in sterile-filtered PBS. The 20-fold stocks were diluted in TSB to yield 2-fold working stocks; 200 μL of working stock was added to the highest concentration treatment well and 2-fold serially diluted across the plate to lend final treatment volumes of 100 μL/well. TSB was added to treatment wells to yield final volume of 200 μL/well. PBS was added to the edge wells of the 96-well plate.
(§6) Prior to treatment, 48 h biofilms were rinsed in a 96-well plate containing 200 μL PBS/well for one minute and then the peg lid was transferred to the treatment plate. The plate was parafilmed and incubated at 35° C. for 24 h with 150 rpm shaking. Upon 24 h treatment, the peg lid was removed, rinsed in 200 μL PBS buffer twice for 1 min each, then transferred to a recovery plate containing 200 μL TSB+1% Tween-20 per well. The apparatus was placed in a steel tray and sonicated in a water bath sonicator (Branson 1510) for 10 min to dislodge biofilms. The peg lid was subsequently removed and the media-containing plate was incubated for 20 h at 35° C. with 150 rpm shaking to recover biofilms. The MBEC was read as the lowest treatment concentration where no growth occurred, as determined by measuring by OD600 on a plate reader. […]
Procedure for MRSA (USA400MW2) biofilm: as §4
To prepare biofilm treatment plates, 20-fold stocks of the highest concentration tested were made in sterile-filtered PBS. […]
Prior to treatment, 48 h biofilms were rinsed in a 96-well plate containing 200 μL PBS/well for one minute and then the peg lid was transferred to the treatment plate. […] The MBEC was read as the lowest treatment concentration where no growth occurred, as determined by measuring by OD600 on a plate reader. […]
Procedure for MSSA (29213) biofilm: as §4, §5, §6
Procedure for S. aureus biofilms: as §4, §5
Prior to treatment, 48 h biofilms were rinsed in a 96-well plate containing 200 μL PBS/well for one minute and then the peg lid was transferred to the treatment plate. The plate was parafilmed and incubated at 35° C. for 24 h with 150 rpm shaking. Upon 24 h treatment, the peg lid was removed, rinsed in 200 μL PBS buffer twice for 1 min each, then transferred to a recovery plate containing 200 μL TSB+1% Tween-20 per well. The apparatus was placed in a steel tray and sonicated in a water bath sonicator (Branson 1510) for 10 min to dislodge biofilms. The peg lid was subsequently removed and the media-containing plate was incubated for 20 h at 35° C. with 150 rpm shaking to recover biofilms. The MBEC was read as the lowest treatment concentration where no growth occurred, as determined by measuring by OD600 on a plate reader. The values reported are median values from a minimum of two experiments performed on different days.

In the case of `CN[C@H](CC(C)C)C(=O)N[C@H]1C(=O)N[C@@H](CC(N)=O)C(=O)N[C@H]2C(=O)N[C@H]3C(=O)N[C@H](C(=O)N[C@H](C(=O)O)c4cc(O)cc(O)c4-c4cc3ccc4O)[C@H](O)c3ccc(c(Cl)c3)Oc3cc2cc(c3O[C@@H]2O[C@H](CO)[C@@H](O)[C@H](O)[C@H]2O[C@H]2C[C@](C)(N)[C@H](O)[C@H](C)O2)Oc2ccc(cc2Cl)[C@H]1O` [Vancomycin], the MIC [1] is reported as 128 µM (≈ 186 µg/mL), the MIC (P. aeruginosa PA14 [2]) is reported as over 256 µM and the “Log CFU/ml counts” value (MRSA USA300 biofilms; 16 μM in PBS) is reported as 4.3 (0.3) Log CFU/ml. The “Log CFU/ml counts” value (MRSA USA300 biofilms; 32 μM in PBS) was 5.1 (1.0) Log CFU/ml, the “killing of biofilms after 5 h treatment” value (MRSA USA300 biofilms; 16 and 32 μM, in words) was “ineffective” and the MIC (H. pylori) was over 32 µM. For the same compound, the MIC (E. coli UTI89 [3]) was over 128 µM, the MIC [4] was 1.5 µM (≈ 2.17 µg/mL) and the “killing of persister cells” value [5] was “ineffective”. The “cell killing, time-kill in MHB” value (MRSA USA400 MW2) was “required longer treatment time”, the MIC (MRSA (USA400MW2) [6]) was 0.5 µM (≈ 0.725 µg/mL) and the MIC (MRSA (USA300LAC) [7]) was 0.5 µM (≈ 0.725 µg/mL). The MIC [8] was 100 µM (≈ 145 µg/mL), the MIC (A. baumannii) was over 32 µM and the “SYTOX Green uptake (membrane damage)” value [9] was “no SYTOX Green uptake”. The “Minimum Biofilm Eradication Concentration (MBEC)” value (MRSA (USA400MW2) biofilm; median (IQR), MRSA (USA400MW2), 24 h treatment in media) was at least 500 µM, the “Minimum Biofilm Eradication Concentration (MBEC)” value (MRSA (USA300LAC) biofilm; [24]) was at least 400 µM and the MIC (MSSA (29213) [10]) was 0.5 µM (≈ 0.725 µg/mL). For the same compound, the “Minimum Biofilm Eradication Concentration (MBEC)” value (MSSA (29213) biofilm; [25]) was at least 500 µM, the MIC (E. faecium Van-Resistant [11]) was 512 µM (≈ 742 µg/mL) and the “increase of MIC in VRE faecalis” value ([12]; resistant versus susceptible) was over 85 fold. The MIC [13] was 0.375 µM (≈ 0.543 µg/mL), the “increase of MIC in VRE faecium” value (E. faecium Van-Resistant [14]; resistant versus susceptible) was over 1350 fold and the “reduction in biofilm bacterial load (CFU/wound)” value (USA300 LAC biofilm wound) was “not statistically significant”.

In the case of `N=C(N)NCCC[C@@H](N)C(=O)N[C@H](CCCNC(=N)N)C(=O)N[C@H](CCCNC(=N)N)C(=O)N[C@H](CCCNC(=N)N)C(=O)N[C@H](CCCNC(=N)N)C(=O)N[C@H](CCCNC(=N)N)C(=O)N[C@H](CCCNC(=N)N)C(=O)N[C@H](CCCNC(=N)N)C(N)=O` [r8, octa-D-arginine], the “Minimum Inhibitory Concentration (MIC)” value (MSSA (29213) [15]; 29213) is reported as 60 (20) μM, the “killing of persister cells” value [5] is reported as “no activity” and the “Minimum Inhibitory Concentration (MIC)” value (MRSA (USA400MW2) [16]; USA400) is reported as 20 (0) μM. The “E. faecalis MICs Van-Susceptible” value [17] was over 64 µM, the “Minimum Biofilm Eradication Concentration (MBEC)” value (MRSA (USA400MW2) biofilm; USA400, 24 h) was over 80 µM and the “E. faecium MICs Van-Susceptible” value [18] was over 64 µM. For the same compound, the “Minimum Biofilm Eradication Concentration (MBEC)” value (MRSA (USA300LAC) biofilm; USA300, 24 h) was over 80 µM, the “Minimum Biofilm Eradication Concentration (MBEC)” value (MSSA (29213) biofilm; 29213) biofilm, 24 h) was over 80 µM and the “E. faecalis MICs Van-Resistant” value ([12]; Van-Resistant) was over 64 µM. For the same compound, the “ability to eradicate biofilms” value (S. aureus biofilms; in words) was “unable to eradicate biofilms”, the “Minimum Inhibitory Concentration (MIC)” value (MRSA (USA300LAC) [19]; USA300) was 40 (0) μM and the “E. faecium MICs Van-Resistant” value (E. faecium Van-Resistant [14]; Van-Resistant) was over 128 µM. The “Median MIC” value (E. coli UTI89 [20]; UTI89) was 36 µM.

For “Lysostaphin: an antibacterial enzyme that induces membrane permeabilization, positive control”, the “SYTOX Green uptake (membrane damage)” value [9] was “Rapid uptake of SYTOX Green”.

For `CN[C@H](CC(C)C)C(=O)N[C@H]1C(=O)N[C@@H](CC(N)=O)C(=O)N[C@H]2C(=O)N[C@H]3C(=O)N[C@H](C(=O)N[C@H](C(=O)NCCCCCC(=O)N[C@H](CCCNC(=N)N)C(=O)N[C@H](CCCNC(=N)N)C(=O)N[C@H](CCCNC(=N)N)C(=O)N[C@H](CCCNC(=N)N)C(=O)N[C@H](CCCNC(=N)N)C(=O)N[C@H](CCCNC(=N)N)C(=O)N[C@H](CCCNC(=N)N)C(=O)N[C@H](CCCNC(=N)N)C(N)=O)c4cc(O)cc(O)c4-c4cc3ccc4O)[C@H](O)c3ccc(c(Cl)c3)Oc3cc2cc(c3O[C@@H]2O[C@H](CO)[C@@H](O)[C@H](O)[C@H]2O[C@H]2C[C@](C)(N)[C@H](O)[C@H](C)O2)Oc2ccc(cc2Cl)[C@H]1O` [V-r8, vancomycin-D-octaarginine], the “Minimum Inhibitory Concentration (MIC)” value (MSSA (29213) [15]; median (IQR), MSSA (29213)) was 1.6 (0.5) μM, the “Log CFU/ml counts” value (MRSA USA300 biofilms; 16 μM in PBS) was 2.2 (0.2) Log CFU/ml and the “Log CFU/ml counts” value (MRSA USA300 biofilms; 32 μM in PBS) was 2.0 (0) Log CFU/ml. For the same compound, the “biofilm-associated MRSA eradicated” value (MRSA USA300 biofilms; 5 h treatment at 16 and 32 μM) was 98%, the “efficacy against persister cells relative to vancomycin” value ([5]; at 20 μM) was over 1500 fold and the “killing of persister cells” value [5] was “enhanced killing of persister cells”. The “cell killing, time-kill in MHB” value (MRSA USA400 MW2) was “rapid killing; also recorded: eradicated MRSA to the CFU/ml detection limit”, the “killing relative to V, r8 and untreated cells” value (V. cholerae; after 4 h) was ~5 orders of magnitude and the “higher killing than kanamycin” value (V. cholerae; over the first 2 h) was 2-3 orders of magnitude. For the same compound, the “Median MIC” value (P. aeruginosa PA14 [21]) was over 32 µM, the “acute toxicity, open wound” value [22] was “no acute toxicity” and the “Minimum Inhibitory Concentration (MIC)” value (MRSA (USA400MW2) [16]; median (IQR), MRSA (USA400MW2)) was 0.94 (0.2) μM. The “SYTOX Green uptake (membrane damage)” value [9] was “no SYTOX Green uptake”, the “Minimum Biofilm Eradication Concentration (MBEC)” value (MRSA (USA300LAC) biofilm; [24]) was 9.5 µM and the “Minimum Biofilm Eradication Concentration (MBEC)” value (MSSA (29213) biofilm; [25]) was 16 µM. The “Median MIC” value [23] was 10 µM, the “better potency over vancomycin in diminishing growth of biofilm-associated bacteria” value (S. aureus biofilms; in PBS) was 160 fold and the “better potency over vancomycin in diminishing growth of biofilm-associated bacteria” value (S. aureus biofilms; in media) was over 31 fold. For the same compound, the “minimum biofilm eradication concentrations (MBECs)” value (S. aureus biofilms; range over S. aureus strains of Table 1) was 2.5 to 16 µM, the “antimicrobial activity against planktonic S. aureus” value (planktonic S. aureus) was “single digit micromolar” and the “Minimum Inhibitory Concentration (MIC)” value (MRSA (USA300LAC) [19]; median (IQR), MRSA (USA300LAC)) was 2.0 (0.1) μM. The “improvement against VRE faecium (over vancomycin)” value (E. faecium Van-Resistant [14]) was 128 fold, the “Median MIC” value (E. coli UTI89 [20]; E. coli UTI89) was at least 32 µM and the “reduction in biofilm bacterial load (CFU/wound)” value (USA300 LAC biofilm wound) was “significant reduction; also recorded: as effective as 2% fusidic acid”.
